PubChem BioAssay (NCI)
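A five-concentration, 48-hour dose response in 96-well plates underlies each endpoint, interpolated linearly between surrounding concentrations. GI50 is the concentration that inhibits growth by half. At the TGI there is no net growth.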

Key:
Test in all cases: inhibition of tumour cell growth, NCI panel, 48 h
786-0 renal = test system: 786-0 renal
A498 renal = test system: A498 renal
A549 NSCLC = test system: A549 NSCLC
ACHN renal = test system: ACHN renal
BT-549 breast = test system: BT-549 breast
CAKI-1 renal = test system: CAKI-1 renal
CCRF-CEM leukemia = test system: CCRF-CEM leukemia
COLO 205 colon = test system: COLO 205 colon
DU-145 prostate = test system: DU-145 prostate
EKVX NSCLC = test system: EKVX NSCLC
HCC-2998 colon = test system: HCC-2998 colon
HCT-116 colon = test system: HCT-116 colon
HCT-15 colon = test system: HCT-15 colon
HOP-62 NSCLC = test system: HOP-62 NSCLC
HOP-92 NSCLC = test system: HOP-92 NSCLC
HS 578T breast = test system: HS 578T breast
HT29 colon = test system: HT29 colon
IGROV1 ovarian = test system: IGROV1 ovarian
K-562 leukemia = test system: K-562 leukemia
KM12 colon = test system: KM12 colon
LOX IMVI melanoma = test system: LOX IMVI melanoma
MALME-3M melanoma = test system: MALME-3M melanoma
MCF7 breast = test system: MCF7 breast
MDA-MB-231 breast = test system: MDA-MB-231 breast
MDA-MB-435 = test system: MDA-MB-435
MOLT-4 leukemia = test system: MOLT-4 leukemia
NCI-H226 lung = test system: NCI-H226 lung
NCI-H23 lung = test system: NCI-H23 lung
NCI-H460 lung = test system: NCI-H460 lung
NCI-H522 lung = test system: NCI-H522 lung
NCI/ADR-RES ovarian = test system: NCI/ADR-RES ovarian
OVCAR-3 ovarian = test system: OVCAR-3 ovarian
OVCAR-4 ovarian = test system: OVCAR-4 ovarian
OVCAR-5 ovarian = test system: OVCAR-5 ovarian
OVCAR-8 ovarian = test system: OVCAR-8 ovarian
PC-3 prostate = test system: PC-3 prostate
RPMI-8226 leukemia = test system: RPMI-8226 leukemia
RXF 393 renal = test system: RXF 393 renal
SF-268 CNS = test system: SF-268 CNS
SF-295 CNS = test system: SF-295 CNS
SF-539 CNS = test system: SF-539 CNS
SK-MEL-2 melanoma = test system: SK-MEL-2 melanoma
SK-MEL-28 melanoma = test system: SK-MEL-28 melanoma
SK-MEL-5 melanoma = test system: SK-MEL-5 melanoma
SK-OV-3 ovarian = test system: SK-OV-3 ovarian
SN12C renal = test system: SN12C renal
SNB-19 CNS = test system: SNB-19 CNS
SW-620 colon = test system: SW-620 colon
T-47D breast = test system: T-47D breast
TK-10 renal = test system: TK-10 renal
U251 CNS = test system: U251 CNS
UACC-257 melanoma = test system: UACC-257 melanoma
UACC-62 melanoma = test system: UACC-62 melanoma
UO-31 renal = test system: UO-31 renal

O=C(CN(/C=C/C(=O)C(F)(F)F)c1ccccc1)c1ccc(Cl)c(Cl)c1
GI50 (786-0 renal): 17.6 µM | TGI (786-0 renal): 37.5 µM | GI50 (A498 renal): 14.2 µM | TGI (A498 renal): 27.4 µM | GI50 (A549 NSCLC): 13.4 µM | TGI (A549 NSCLC): 29.8 µM | GI50 (ACHN renal): 14.7 µM | TGI (ACHN renal): 27.9 µM | GI50 (BT-549 breast): 10.9 µM | TGI (BT-549 breast): 29.5 µM | GI50 (CAKI-1 renal): 8.44 µM | TGI (CAKI-1 renal): 23.4 µM | GI50 (CCRF-CEM leukemia): 11.2 µM | TGI (CCRF-CEM leukemia): 29.2 µM | GI50 (COLO 205 colon): 19.5 µM | TGI (COLO 205 colon): 42.4 µM | GI50 (DU-145 prostate): 13 µM | TGI (DU-145 prostate): 30.6 µM | GI50 (EKVX NSCLC): 13.5 µM | TGI (EKVX NSCLC): 28.8 µM | GI50 (HCC-2998 colon): 15.8 µM | TGI (HCC-2998 colon): 29.9 µM | GI50 (HCT-116 colon): 12.7 µM | TGI (HCT-116 colon): > 100 µM | GI50 (HCT-15 colon): 14.6 µM | TGI (HCT-15 colon): 28.2 µM | GI50 (HOP-62 NSCLC): 28.3 µM | TGI (HOP-62 NSCLC): > 100 µM | GI50 (HOP-92 NSCLC): 17.7 µM | TGI (HOP-92 NSCLC): 38.5 µM | GI50 (HS 578T breast): 14.8 µM | TGI (HS 578T breast): 49.6 µM | GI50 (HT29 colon): 34.1 µM | TGI (HT29 colon): > 100 µM | GI50 (IGROV1 ovarian): 5.76 µM | TGI (IGROV1 ovarian): 19.7 µM | GI50 (K-562 leukemia): 15.7 µM | TGI (K-562 leukemia): 37.6 µM | GI50 (KM12 colon): 12.3 µM | TGI (KM12 colon): 28.4 µM | GI50 (LOX IMVI melanoma): 16 µM | TGI (LOX IMVI melanoma): 31.8 µM | GI50 (MALME-3M melanoma): 12.8 µM | TGI (MALME-3M melanoma): 32.1 µM | GI50 (MCF7 breast): 5.2 µM | TGI (MCF7 breast): 55.3 µM | GI50 (MDA-MB-231 breast): 12.8 µM | TGI (MDA-MB-231 breast): 26.3 µM | GI50 (MDA-MB-435): 14.9 µM | TGI (MDA-MB-435): 31.9 µM | GI50 (MOLT-4 leukemia): 12.7 µM | TGI (MOLT-4 leukemia): 32.4 µM | GI50 (NCI-H226 lung): 13.7 µM | TGI (NCI-H226 lung): 27.9 µM | GI50 (NCI-H23 lung): 13.6 µM | TGI (NCI-H23 lung): 26.7 µM | GI50 (NCI-H460 lung): 17.5 µM | TGI (NCI-H460 lung): 44.9 µM | GI50 (NCI-H522 lung): 11.1 µM | TGI (NCI-H522 lung): 25 µM | GI50 (NCI/ADR-RES ovarian): 15.2 µM | TGI (NCI/ADR-RES ovarian): 31.3 µM | GI50 (OVCAR-3 ovarian): 14.1 µM | TGI (OVCAR-3 ovarian): 30 µM | GI50 (OVCAR-4 ovarian): 20.3 µM | TGI (OVCAR-4 ovarian): 45.6 µM | GI50 (OVCAR-5 ovarian): 17 µM | TGI (OVCAR-5 ovarian): 33.9 µM | GI50 (OVCAR-8 ovarian): 16.6 µM | TGI (OVCAR-8 ovarian): 33 µM | GI50 (PC-3 prostate): 13.3 µM | TGI (PC-3 prostate): 26.9 µM | GI50 (RPMI-8226 leukemia): 13.9 µM | TGI (RPMI-8226 leukemia): 40.2 µM | GI50 (RXF 393 renal): 17.1 µM | TGI (RXF 393 renal): 52.5 µM | GI50 (SF-268 CNS): 18.4 µM | TGI (SF-268 CNS): 40.7 µM | GI50 (SF-295 CNS): 12.4 µM | TGI (SF-295 CNS): 27.5 µM | GI50 (SF-539 CNS): 18 µM | TGI (SF-539 CNS): 39.8 µM | GI50 (SK-MEL-2 melanoma): 12.4 µM | TGI (SK-MEL-2 melanoma): 26.6 µM | GI50 (SK-MEL-28 melanoma): 23.9 µM | TGI (SK-MEL-28 melanoma): 56.2 µM | GI50 (SK-MEL-5 melanoma): 13.2 µM | TGI (SK-MEL-5 melanoma): 26.3 µM | GI50 (SK-OV-3 ovarian): 21.1 µM | TGI (SK-OV-3 ovarian): 40.1 µM | GI50 (SN12C renal): 15.1 µM | TGI (SN12C renal): 28.3 µM | GI50 (SNB-19 CNS): 20.3 µM | TGI (SNB-19 CNS): 46.4 µM | GI50 (SW-620 colon): 14.6 µM | TGI (SW-620 colon): 30.1 µM | GI50 (T-47D breast): 15.8 µM | TGI (T-47D breast): 55.7 µM | GI50 (TK-10 renal): 15.9 µM | TGI (TK-10 renal): 32.8 µM | GI50 (U251 CNS): 14.8 µM | TGI (U251 CNS): 28.1 µM | GI50 (UACC-257 melanoma): 13.4 µM | TGI (UACC-257 melanoma): 27.4 µM | GI50 (UACC-62 melanoma): 9.43 µM | TGI (UACC-62 melanoma): 21.3 µM | GI50 (UO-31 renal): 11.4 µM | TGI (UO-31 renal): 24.3 µM
